Results reported in patent publication US11752215B2, “Targeting tumor cells with chemotherapeutic agents conjugated to anti-matriptase antibodies by in vivo cleavable linking moieties” (priority 2016, dated 2023).
“Also recorded” adds a separate entry of the source.

How the values were obtained:
[1] = tested on: breast tumors (MDA-MB468); assay: Human breast xenograft tumor model, M69-DOX; type: in vivo, NOD/SCID mice; settings: 2 mg/kg
Description: FIG. 8 illustrates the M69-DOX conjugate targeting active matriptase inhibited breast tumor growth in vivo, comparing treatment by M69-DOX at 10 mg/Kg and 20 mg/Kg doses with treatment by DOX at 2 mg/Kg dose and the control.
FIG. 9 illustrates reduction of the tumor weight by M69-DOX at 10 mg/Kg and 20 mg/Kg doses in comparison with treatment by DOX at 2 mg/Kg dose and the control.
To assess the efficacy of M69-DOX to suppress tumor growth in vivo, a human breast xenograft tumor model was used. NOD/SCID mice bearing breast tumors (MDA-MB468) were treated twice weekly with M69-DOX at either 20 or 10 mg/kg, as well as treated with DOX at 2 mg/kg. […] As a single mAb was attached with 7 molecules of DOX, a dose at 10 mg/kg of M69-DOX is equivalent to […] of DOX administered.
Reduced Weights of Tumor Masses in Mice Treated with M69-DOX. At the end of the treatment course, the tumor masses were collected from the experimental mice, and were weighed. The average weights of tumors from the groups treated with M69-DOX at either dose as well as treated with DOX were reduced to about 50% of the one from the untreated control group (FIG. 9). Significant reduction in tumor weights by M69-DOX further confirms the efficacy of site-directed delivery of DOX to tumor cells expressing activated matriptase.

[2] = tested on: bone marrow-derived MSCs (lack matriptase expression); assay: Tolerance of bone marrow-derived mesenchymal stromal cells (cell count); type: cell-based, human; settings: 5 nM, 4 days
Description: Cell numbers were determined by Vi-Cell counter.
Human bone marrow-derived MSCs, which lack matriptase expression, were used as a control to determine the cytotoxic selectivity of M24-DOX as shown in FIG. 4 where bone marrow-derived mesenchymal stromal cells (5×10^4/well, 24-well plates) were treated with M24-DOX or free DOX at varying concentrations for 4 days. Cell numbers were determined by Vi-Cell counter.

MM cells = assay: MM cell proliferation, DOX-conjugates alone and combined with thalidomide; type: cell-based; settings: thalidomide alone
Description: FIGS. 6A and B illustrate that thalidomide sensitizes MM cells to M69-DOX, but not M24-DOX: (A) comparison of treatment of MM cells by M69-DOX alone with the M69-DOX/thalidomide combination treatment; and (B) comparison of treatment of MM cells by M24-DOX alone with the M24-DOX/thalidomide combination treatment.
Thalidomide is a therapeutic for multiple myeloma treatment, and the combination of thalidomide and dexamethasone is one of the most common regimens for treatment of patients with multiple myeloma, with an response rate of up to 60-70% (Denz, U., Eur. J. Cancer., 2006, 42:1591-1600; Gieseler, F., et al., Thromb. Haemost., 2008, 99: 1001-1007). The efficacy of both DOX-conjugates in combination with current MM therapeutics such as thalidomide was tested.

matriptase = assay: Matriptase activation in MM cells (Western analysis with mAb M69); type: cell-based, human; settings: 24-hour treatment, 50 μM
Description: FIG. 5 illustrates activation of matriptase in MM cells induced by thalidomide. MM cells (MM.1S) were treated with varying concentrations of thalidomide as indicated for 24 hours followed by Western analyses to detect the activation of matriptase using a specific monoclonal antibody (M69) to the active form of the enzyme. […] GAPDH served as control.
FIG. 7 illustrates activation of matriptase in MM cells induced by thalidomide. MM cells (MM.1S) were treated with varying concentrations of thalidomide as indicated for 24 hours followed by Western analyses to detect the activation of matriptase using a specific monoclonal antibody (M69) to the active form of the enzyme. […] GAPDH served as control.
To examine the increase in cytotoxicity that resulted with the thalidomide and M69-DOX conjugate we measured the effect of thalidomide on expression of activated matriptase.

PC-3 prostate carcinoma = settings: PC-3 xenograft; cited from earlier work

Q: What does the source list for `COc1cccc2c1C(=O)c1c(O)c3c(c(O)c1C2=O)C[C@@](O)(C(=O)CO)C[C@@H]3OC1CC(N)C(O)C(C)O1` (stereo partly drawn) [DOX, (8S,10S)-10-(4-amino-5-hydroxy-6-methyl-tetrahydro-2H-pyran-2-yloxy)-6,8,11-trihydroxy-8-(2-hydroxyacetyl)-1-methoxy-7,8,9,10-tetrahydrotetracene-5,12-dione]?
A: tumor growth [1]: significantly abolished; average weights of tumors relative to untreated control group ([1]; end of treatment): about 50%; effect on MSC proliferation [2]: significantly inhibit cell proliferation

Q: For `O=C1CCC(N2C(=O)c3ccccc3C2=O)C(=O)N1` (stereo not drawn) [thalidomide], which “effect on MM cell proliferation” value (MM cells) is on record?
A: no effect on MM cell proliferation; also recorded: little effect on the cell proliferation of MM cells

Q: And the “activation of matriptase in MM cells” value (matriptase)?
A: markedly enhanced

Q: With ecotin: matriptase inhibitor as the compound, how does the “tumor growth and metastasis formation” value (PC-3 prostate carcinoma) read?
A: Reduced tumor growth and metastasis formation
